The values below come from ChEMBL document CHEMBL3526110, “Preclinical evaluation of the metabolism and disposition of RRx-001, a novel investigative anticancer agent” (Drug Metab Dispos, 2012).

Molecules are shown by their SMILES.

Series [1] deals with Blood. In words: Retention time in human whole blood in presence of 0.1% formic acid in acetonitrile at 20 uM by LC-MS/MS method. Type of series: ADME, tissue-based.
Series [2] has as its system Blood. In words: Drug metabolism in rat whole blood treated with 20 uM RRx-001 assessed as compound formation by LC-MS/MS method. Type of series: ADME, tissue-based.
In series [3] the test system is Blood. In words: Retention time in rat whole blood in presence of 0.1% formic acid in water at 20 uM by LC-MS/MS method. Type of series: ADME, tissue-based.
Series [4] can be described thus: Drug level assessed as compound formation from RRx-001 after 1 hr in presence of reduced GSH at pH 7.8 by LC-MS/MS method. It is filed as physicochemical. As to conditions: pH 7.8, 1 h.
The test system of series [5] is Blood. Nature of the series: Retention time in human whole blood in presence of 0.1% formic acid in water at 20 uM by LC-MS/MS method. Type of series: ADME, tissue-based.
The test system of series [6] is Blood. In words: Drug metabolism in human whole blood treated with 20 uM RRx-001 assessed as compound formation by LC-MS/MS method. It is filed as ADME, tissue-based.
In series [7] the test system is Blood. In words: Retention time in rat whole blood in presence of 0.1% formic acid in acetonitrile at 20 uM by LC-MS/MS method. Type of series: ADME, tissue-based.

Regarding `N[C@@H](CSCC(=O)N1CC([N+](=O)[O-])([N+](=O)[O-])C1)C(=O)O`, the Retention_time came out at 7.6 min in the series with Blood [1], 7.8 min in the series with Blood [3], 7.8 min in the series with Blood [5] and 7.6 min in the series with Blood [7]. Also, the Drug metabolism entry (in the series on Blood [2]; in series [4]; in the series with Blood [6]) was “metabolite_detected” throughout.

For `N[C@@H](CSCC(=O)N1CC([N+](=O)[O-])([N+](=O)[O-])C1)C(=O)NCC(=O)O`, the Retention_time is reported as 6.2 min with Blood [1], 8 min in the series on Blood [3], 8 min in the series on Blood [5] and 6.2 min in the series with Blood [7]. Besides, the Drug metabolism result with Blood [2] and in the series on Blood [6] was “metabolite_detected” in each case.
